In patent US7097969B2, “Non-endogenous, constitutively activated known G protein-coupled receptors” (Arena Pharmaceuticals, Inc., priority 2000, dated 2006):

B1: 24-IC3-SST2: non-endogenous human GPR24 in which the IC3 loop is replaced with that of SST2 (SEQ.ID.NO.:359) (protein, listed as Homo sapiens)
chain: MDLEASLLPTGPNASNTSDGPDNLTSAGSPPRTGSISYINIIMPSVFGTICLLGIIGNSTVIFAVVKKSKLHWCNNVPDIFIINLSVVDLLFLLGMPFMIHQLMGNGVWHFGETMCTLITAMDANSQFTSTYILTAMAIDRYLATVHPISSTKFRKPSVATLVICLLWALSFISITPVWLYARLIPFPGGAVGCGIRLPNPDTDLYWFTLYQFFLAFALPFVVITAAYVRILQKVKSSGIRVGSSKRKKSEKKVTRTAIAICLVFFVCWAPYYVLQLTQLSISRPTLTFVYLYNAAISLGYANSCLNPFVYIVLCETFRKRLVLSVKPAAQGQLRAVSNAQTADEERTESKGTYFPCHPAHLQVRAPQHATGRDAEKNPRPLGKCRKAGLGVVAMKIHSMGSHVAGEAWSQVWGFQISEIPWGSRMRPLDRTEAEQENMLVWITGC

Key:
[1] = tested on: GPR24; assay: Intracellular IP3 accumulation assay (Gq-associated receptors); type: cell-based, human; details: FIG. 4
Experimental: On day 1, cells comprising the receptors (endogenous and/or non-endogenous) can be plated onto 24 well plates, usually 1×10^5 cells/well (although this number can be optimized. On day 2 cells can be transfected by firstly mixing 0.25 μg DNA in 50 μL serum free DMEM/well and 2 μL lipofectamine in 50 μl serum-free DMEM/well. The solutions are gently mixed and incubated for 15–30 min at room temperature. Cells are washed with 0.5 ml PBS and 400 μl of serum free media is mixed with the transfection media and added to the cells. The cells are then incubated for 3–4 hrs at 37° C./5% CO2 and then the transfection media is removed and replaced with 1 ml/well of regular growth media. On day 3 the cells are labeled with ^3H-myo-inositol. Briefly, the media is removed and the cells are washed with 0.5 ml PBS. Then 0.5 ml inositol-free/serum free media (GIBCO BRL) is added/well with 0.25 μCi of ^3H-myo-inositol/well and the cells are incubated for 16–18 hrs o/n at 37° C./5% CO2. On Day 4 the cells are washed with 0.5 ml PBS and 0.45 ml of assay medium is added containing inositol-free/serum free media 10 μM pargyline 10 mM lithium chloride or 0.4 ml of assay medium and 50 μL of 10× ketanserin (ket) to final concentration of 10 μM. The cells are then incubated for 30 min at 37° C. […]

[2] = tested on: GPR24; assay: Cell-based cAMP for Gi coupled target GPCRs, co-transfection with signal enhancer TSHR-A623I; design: species or system human; details: FIG. 1; for decrease in cAMP production compared to TSHR-A623I with endogenous GPR24 (GPR24 wt): co-transfected with TSHR-A623I; for cAMP production: cells co-transfected with TSHR-A623I, in the presence of TSH
Excerpt: (§1) A Gi coupled receptor is known to inhibit adenylyl cyclase, and, therefore, decrease the level of cAMP production, which can make assessment of cAMP levels challenging. An effective technique in measuring the decrease in production of cAMP as an indication of constitutive activation of a receptor that predominantly couples Gi upon activation can be accomplished by co-transfecting a signal enhancer, e.g., a non-endogenous, constitutively activated receptor that predominantly couples with Gs upon activation (e.g., TSHR-A623I, disclosed below), with the Gi linked GPCR (such a technique is exemplified herein with the Gi coupled receptor, GPR24). As is apparent, constitutive activation of a Gs coupled receptor can be determined based upon an increase in production of cAMP. Constitutive activation of a Gi coupled receptor leads to a decrease in production cAMP. Thus, the co-transfection approach is intended to advantageously exploit these “opposite” affects. For example, co-transfection of a non-endogenous, constitutively activated Gs coupled receptor (the “signal enhancer”) with the endogenous Gi coupled receptor (the “target receptor”) provides a baseline cAMP signal (i.e., although the Gi coupled receptor will decrease cAMP levels, this “decrease” will be relative to the substantial increase in cAMP levels established by constitutively activated Gs coupled signal enhancer). By then co-transfecting the signal enhancer with a constitutively activated version of the target receptor, cAMP would be expected to further decrease (relative to base line) due to the increased functional activity of the Gi target (i.e., which decreases cAMP).
(§2) TSHR is a Gs coupled GPCR that causes the accumulation of cAMP upon activation. TSHR was constitutively activated by mutating amino acid residue 623 (i.e., changing an alanine residue to an isoleucine residue). See, SEQ.ID.NO.:402 for nucleic acid sequence and SEQ.ID.NO.:403 for deduced amino acid sequence. A Gi coupled receptor is expected to inhibit adenylyl cyclase, and, therefore, decrease the level of cAMP production, which can make assessment of cAMP levels challenging. An effective technique for measuring the decrease in production of cAMP as an indication of constitutive activation of a Gi coupled receptor can be accomplished by co-transfecting, most preferably, non-endogenous, constitutively activated TSHR (TSHR-A623I) (or an endogenous, constitutively active Gs coupled receptor) as a “signal enhancer” with a Gi linked target GPCR, such as GPR24, to establish a baseline level of cAMP. Upon creating a non-endogenous version of the Gi coupled receptor, this non-endogenous version of the target GPCR is then co-transfected with the signal enhancer, and it is this material that can be used for screening. We utilized such approach to effectively generate a signal when a cAMP assay is used; this approach is preferably used in the direct identification of candidate compounds against Gi coupled receptors. It is noted that for a Gi coupled GPCR, when this approach is used, an inverse agonist of the target GPCR will increase the cAMP signal and an agonist will decrease the cAMP signal.
(§3) On day one, 2×10^4 Hek-293 and Hek-293T cells/well were plated out. On day two, two reaction tubes were prepared (the proportions to follow for each tube are per plate): tube A was prepared by mixing 2 μg DNA of each receptor transfected into the mammalian cells, for a total of 4 μg DNA (e.g., pCMV vector; pCMV vector with mutated THSR (TSHR-A623I); TSHR-A623I and GPR24, etc.) in 1.2 ml serum free DMEM (Irvine Scientific, Irvine, Calif.); tube B was prepared by mixing 120 μl lipofectamine (Gibco BRL) in 1.2 ml serum free DMEM. Tubes A and B were then admixed by inversion (several times), followed by incubation at room temperature for 30–45 min. The admixture is referred to as the “transfection mixture”. Plated Hek-293 cells were washed with 1×PBS, followed by addition of 10 ml serum free DMEM. […]

[3] = tested on: GPR5; assay: as above; design: species or system human; details: FIG. 2
Excerpt: as §1, §2, §3

Row | Molecule | increase in IP3 accumulation compared to the endogenous version of GPR24 (GPR24 wt) [1] | decrease in cAMP production compared to TSHR-A623I with endogenous GPR24 (GPR24 wt) [2] | cAMP production [2] | cAMP production ([3]; cells co-transfected with TSHR-A623I, in the presence of TSH) | decrease in production of cAMP against pCMV co-transfected with TSHR-A623I ([3]; reference pCMV + TSHR-A623I 106.75 pmol cAMP/well)
1 | I261Q: non-endogenous version of the human GPR24 receptor with I261Q mutation (SEQ.ID.NO.:387) | ~32% | ~27% | – | – | –
2 | GPR24 wt: endogenous human GPR24 (also known as MCH or SLC-1) receptor [reference compound] | – | – | 336.5 pmol cAMP/well | – | –
3 | GPR5 wt: endogenous target receptor GPR5 | – | – | – | 58.79 pmol cAMP/well | ~45%
4 | B1 | ~27% | ~22% | 262.266 pmol cAMP/well | – | –
